Patent publication EP4596537A1, “NOVEL FLUORENE DERIVATIVE COMPOUND AND USE THEREOF” (JD Bioscience Inc., priority 2022, dated 2024)

Tests used:
[1] = system: HCT-116 colorectal cancer cell line; experiment: Anticancer efficacy in HCT-116 colorectal cancer tumor model; format: in vivo, nude mice; details: for reduced tumor growth (tumor volume) compared to vehicle: 21 times, day 24
Experimental: A colorectal cancer model was established by subcutaneously transplanting HCT-116 colorectal cancer cell line into nude mice. The colorectal cancer model was divided into the following three groups: Group 1 was administered a vehicle as a control group, Group 2 was administered 0.5 mg/kg of Compound 1, and Group 3 was administered 1.0 mg/kg of Compound 1. The drug was orally administered once a day for a total of 21 times. To evaluate the therapeutic efficacy, the tumor size was measured before drug administration and on days 3, 7, 10, 14, 17, 21, and 24 after drug administration. The tumor size was calculated as follows: Tumor size (mm^3) = (A×B^2)/2 [formula] wherein A and B represent the tumor long axis and short axis, respectively.
In addition, the body weight was measured before drug administration and on days 7, 14, and 21 after drug administration.

[2] = system: BALB/c male mice; experiment: Graft-versus-host disease (GvHD) animal model; format: in vivo; set-up: change in body weight: unit not given here; details: for body weight of the GvHD in vivo model: compared to control group
Experimental: 5-week-old BALB/c male mice were acclimatized for 1 week and irradiated with 800 cGy of total body irradiation. Then, 5 × 10^6 bone marrow cells derived from C57BL/6J and 1 × 10^7 spleen cells were intravenously injected to establish a GvHD in vivo model (positive control). A syngeneic control group was established in the same manner as above, but BALB/c-derived bone marrow cells were selected as the injected bone marrow cells. Compound 1 Daily was established by daily oral gavage of1 mg/kg of Compound 1 to the GvHD in vivo model. Compound 1 Initial only was established by orally administering 1 mg/kg of Compound 1 to the GvHD in vivo model only for 6 days after model induction. The therapeutic effect of Compound 1 was verified by measuring the change in body weight every 3 days for each control and experimental group established as above, and the results are shown in FIG. 11 and Table 4. On day 14, the production of CD4^+IFNg^+ T cells, which is a major factor inducing GvHD, was measured in the spleens isolated from the mice, and the results are shown in FIG. 12 and Table 5.

[3] = system: KKAy diabetes mice; experiment: Intraperitoneal glucose tolerance test (IPGTT) in diabetes animal model; format: in vivo; details: 0.5 mg/kg once a day by oral gavage, 10 weeks; 1 g/kg glucose i.p.; vs vehicle group
Experimental: A vehicle (10% DMSO + 0.5% methylcellulose) and the compound of Example 1 (Compound 1) were administered to 6-week-old male KKAy diabetes mice (n = 6 per group) at a dose of 0.5 mg/kg once a day by oral gavage. At 10 weeks of administration, an intraperitoneal glucose tolerance test (IPGTT) was performed by intraperitoneally administering 1 g/kg of glucose, and the results are shown in FIG. 1.

[4] = system: C57BL6J JmcSlc mice; experiment: Inflammatory bowel disease animal model (DSS-induced colitis); format: in vivo
Experimental: Colitis was induced in 8-week-old male C57BL6J JmcSlc mice by feeding 3.5% dextran sodium sulfate (DSS) ad libitum for 9 days, and then replacing the same with normal drinking water. The vehicle and Compound 1 (0.5 mg/kg or 1 mg/kg) were orally administered to the experimental animal model prepared as described above daily from 2 days before DSS drinking until the end of drinking. In order to determine the degree of colonic inflammation, the degree of longitudinal contraction of the isolated colon was measured, and the histological scores were confirmed through H&E staining, which is shown in FIG. 6. Furthermore, total RNA was isolated from the isolated colon, cDNA was synthesized, and the expression levels of representative cytokines (IFNγ, IL-1β, IL-4, IL-6, IL-10, IL-12β, IL-17a, and TNFα) were measured and compared using qPCR, and the results are shown in FIG. 7.

[5] = system: bladder cancer cells; experiment: Growth inhibition (Cell Counting Kit-8), bladder cancer cells; format: cell-based; details: 24 hours, 0.5% FBS
Experimental: (§1) In order to verify the growth inhibitory effect of Compound 1 on various normal and cancer cell lines, 25 types of cell lines listed in Table 7 below were tested. In detail, each cell was seeded at a density of 2 × 10^4 cells/well in a 96-well plate and cultured for 24 hours, and then the medium was replaced with a medium comprising 0.5% (for cancer cells) or 10% (for normal cells) FBS, and Compound 1 was treated at various concentrations. 24 hours later, 10 µL of Cell Counting Kit-8 (Dojindo Molecular Technologies) was added, and 1 hour later, absorbance at 480 nm was measured using a microplate reader (TECAN SPARK), and the results are shown in FIGS. 15 to 21.

[6] = system: NCI-H295R cells; experiment: Cortisol production (ELISA), Cushing's syndrome cell model; format: cell-based, human; details: 0.1 µM, 0.5 µM, and 1 µM; 0.5 mM 8-Br-cAMP; concentration-dependent
Experimental: NCI-H295R cells (ATCC #CRL-2128), which are a human adrenocortical carcinoma cell line, were seeded at a density of 2.5 × 10^5 cells/well in a 24-well plate. The cells were cultured for 48 hours, and then they were pretreated with Compound 1 (0.1 µM, 0.5 µM, and 1 µM) for 12 hours. Furthermore, to increase cortisol synthesis, the cells were treated with 8-bromoadenosine […] monophosphate (8-Br-cAMP) at a concentration of 0.5 mM, and then re-treated with Compound 1, and allowed to react for 24 hours. After the reaction, the cell culture medium was collected, and the amount of cortisol produced in the cells was measured using an ELISA kit, and the results are shown in FIG. 14.

[7] = system: normal cells; experiment: Growth inhibition (Cell Counting Kit-8), normal cells; format: cell-based; details: 24 hours, 10% FBS; concentration of up to less than 40 µM
Experimental: as §1

[8] = system: liver cancer cells; experiment: Growth inhibition (Cell Counting Kit-8), liver cancer cells; format: cell-based; details: 24 hours, 0.5% FBS
Experimental: as §1

[9] = qPCR, vs vehicle administration group

CC(C(=O)NNc1ccc(F)cc1)n1cc(-c2cc(F)cc3c2-c2ccccc2C3(O)C(F)(F)F)cn1 (stereo not drawn) [Example 1, 2-(4-(2-fluoro-9-hydroxy-9-(trifluoromethyl)-9H-fluoren-4-yl)-1H-pyrazol-1-yl)-N'-(4-fluorophenyl)propanehydrazide]
body weight change ([1]; 0.5 mg/kg and 1.0 mg/kg oral, days 7, 14, 21): no significant body weight change
reduced tumor growth (tumor volume) compared to vehicle ([1]; 0.5 mg/kg oral once a day): 41%
reduced tumor growth (tumor volume) compared to vehicle ([1]; 1.0 mg/kg oral once a day): 49%
change in body weight ([2]; Daily oral gavage 1 mg/kg, D0): 0
change in body weight ([2]; Daily oral gavage 1 mg/kg, D3): -14.77
change in body weight ([2]; Daily oral gavage 1 mg/kg, D6): -22.95
change in body weight ([2]; Daily oral gavage 1 mg/kg, D9): -19.07
change in body weight ([2]; Daily oral gavage 1 mg/kg, D12): -16.1959
body weight of the GvHD in vivo model ([2]; Daily oral gavage 1 mg/kg): significantly recovered
change in body weight ([2]; Initial only: 1 mg/kg oral for 6 days after model induction, D0): 0
change in body weight ([2]; Initial only: 1 mg/kg oral for 6 days after model induction, D3): -11.15
change in body weight ([2]; Initial only: 1 mg/kg oral for 6 days after model induction, D6): -19.01
change in body weight ([2]; Initial only: 1 mg/kg oral for 6 days after model induction, D9): -14.6667
change in body weight ([2]; Initial only: 1 mg/kg oral for 6 days after model induction, D12): -11.99
body weight of the GvHD in vivo model ([2]; Initial only: 1 mg/kg oral for 6 days): significantly recovered
blood glucose increase (IPGTT) [3]: significantly suppressed
longitudinal contraction of colon ([4]; 0.5 mg/kg and 1 mg/kg oral daily, vs vehicle, effect increased with dose): alleviated
colonic epithelial cell recovery (H&E staining) ([4]; 0.5 mg/kg oral daily, DSS): slight
colonic epithelial cell recovery (H&E staining) ([4]; 1 mg/kg oral daily, DSS): remarkable epithelial cell recovery
tissue score (histological score) ([4]; 1 mg/kg oral daily, DSS): lowest score
mRNA expression of IFNγ (colon) [4, 9]: significantly reduced
mRNA expression of IL-4 (colon) [4, 9]: increased
mRNA expression of IL-6 (colon) [4, 9]: significantly reduced
mRNA expression of IL-12b (colon) [4, 9]: significantly reduced
mRNA expression of IL-17a (colon) [4, 9]: significantly reduced
mRNA expression of TNFα (colon) [4, 9]: significantly reduced
concentration at which viability began to rapidly decrease to 70% or less [5]: less than 1.2 µM
cortisol production [6]: significantly inhibited
viability [7]: ≥ 70%
concentration at which viability began to rapidly decrease to 70% or less [8]: 10 µM
